Where two headings read alike, the source gives them in different places.
Legend:
[1] = tested on: primary human fibroblasts (HFb); experiment: in vitro; assay type: cell-based
Experimental: (§1) 12×10^4 primary human fibroblasts (ATCC, cat PCS-201-012) were treated with compounds at various concentrations (10^-7 M, 10^-6 M, 10^-5 M, 10^-4 M, 10^-3 M) for 24 and 144 h. HFb were cultured as described in [21]. Cellular viability was quantified by the MTT assay (Sigma-Aldrich cod. M5655) as described in [22]. Controls were performed treating the cells with vehicle (DMSO) alone. Calculation of LD50 was performed by means of the Origin® - Data Analysis and Graphing software using a sigmoid type interpolating curve.
(§2) LD50 was evaluated in vitro using the MTT cell viability assay for the first time on human cells, in particular on primary human fibroblasts (HFb). […] Intracellular tyrosine was measured in HFb by LC-MS-MS analysis.

[2] = tested on: human fibroblasts (HFb); experiment: Tyrosine dosage: intracellular tyrosine in HFb by LC-MS-MS; assay type: cell-based; details: for slope of dose-response curve of intracellular tyrosine: tyrosine ng in 9×10^4 cells versus concentration, Figure 3A
Experimental: Intracellular tyrosine was calculated in HFb (9×10^4 cells/well) treated for 72 h with the compounds under assessment at various concentrations (10^-8, 10^-7, 10^-6 and 10^-5 M); controls were performed using the carrier at the concentration corresponding to the highest dose of the compound under assessment. At the end of treatment, the cells were recovered by scraping in the presence of norvaline (10^-3 M, used as internal standard, Sigma-Aldrich cod. N7627) and cold methanol (40 µL, Sigma-Aldrich cod. 34860), and subsequently lysed by cycles of freezing/thawing in a bath of dry ice/nitrogen. The lysate was centrifuged (6000g for 5 min) and the supernatant was then recovered, evaporated and re-suspended with 100 µL of 0.05% formic acid. Each sample was analysed by LC-MS-MS. In particular, the analysis was performed with a chromatographic instrument manufactured by Varian (Varian Inc.) run by the software Varian MS Workstation System Control Vers. […] Subsequently, the concentration of each compound was correlated with the amount of intracellular tyrosine contained in 9×10^4 cells and the resulting dose-response curve was obtained using the Origin® - Data Analysis and Graphing software by means of a linear type interpolating curve.
as §2

[3] = alkaptonuria patients, over the course of 3 years; cited from earlier work
[4] = biological target: T1, 4-HPPD (Rattus norvegicus, UniProt P32755); experiment: Determination of 4-HPPD activity by oxygen consumption (SDR SensorDish Reader) in rat liver cytosol; assay type: biochemical, male Wistar rat
T1 construct: from tissue; host or cells: liver cytosol of a male Wistar rat
Experimental: 4-HPPD activity was evaluated in the liver cytosol of a male Wistar rat by monitoring oxygen consumption through the use of the SDR SensorDish® Reader (Presens, Precision Sensing GmbH, Regensburg, Germany). Briefly, a special test tube with an oxygen sensor placed on the bottom was filled with 0.2 M sodium phosphate buffer with pH 7.4, 1.7 mM ascorbic acid (used as a cofactor) and 10.92 mg of rat enzyme preparation (4-HPPD source). The mixture was equilibrated at 37°C for 5 min. and the reaction was started by the addition of substrate ([…], Sigma-Aldrich cod. SAE0003). […] The percentage of inhibition of enzymatic activity was calculated as the ratio of the slopes (decrease of the concentration of O2 (µmol/L) per min.) of the samples containing the inhibitor versus the untreated controls corrected with the negative control values. The IC50 values were calculated by means of regression analysis in the range of tested concentrations by means of the Origin® - Data Analysis and Graphing software using a sigmoid type interpolating curve and plotting on the x-axis the concentrations of the compounds and on the y-axis oxygen consumption values expressed as a percentage of 4-HPPD inhibition, the reduction of oxygen being correlated with inhibition of the enzyme.
4-HPPD inhibition was determined in the cytosolic extract of rat liver (source of the enzyme), by evaluation of enzymatic consumption of oxygen using the SDR SensorDish ® Reader, and was expressed as an IC50 value.

[5] = in vitro; assay type: cell-based; details: after 144 h of treatment, concentration 1 mM; read-out: viability of HFb
Experimental: as §1, §2

[6] = rat liver cytosol, oxygen consumption, read-out: IC50
[7] = rat liver cytosol, oxygen consumption, read-out: IC50 (4-HPPD inhibitory activity)
[8] = rat liver cytosol, oxygen consumption

T1 sequence (P32755 whole entry): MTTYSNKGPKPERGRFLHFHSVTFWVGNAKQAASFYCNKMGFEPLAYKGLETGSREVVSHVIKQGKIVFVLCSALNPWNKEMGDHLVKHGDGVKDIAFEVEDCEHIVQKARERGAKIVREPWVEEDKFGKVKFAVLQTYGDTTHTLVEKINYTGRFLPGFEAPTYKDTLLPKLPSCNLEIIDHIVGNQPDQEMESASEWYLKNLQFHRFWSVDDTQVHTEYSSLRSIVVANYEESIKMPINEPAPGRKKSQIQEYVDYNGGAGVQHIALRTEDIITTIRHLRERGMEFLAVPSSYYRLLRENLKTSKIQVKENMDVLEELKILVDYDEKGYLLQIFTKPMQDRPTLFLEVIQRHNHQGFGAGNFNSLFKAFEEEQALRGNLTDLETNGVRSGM

Compound: O=C1CCCC(=O)C1C(=O)c1ccc(C(F)(F)F)cc1[N+](=O)[O-] [Compound 1, 2-(2-nitro-4-(trifluoromethyl)benzoyl)cyclohexane-1,3-dione, reference compound]
- LD50 24 hours ([1]; human, 24 h): >1 mM [c]
- LD50 at 24 h ([1]; human, 24 h): > 10^-3 M
- LD50 144 hours ([1]; human, 144 h): ~1 mM
- LD50 at 144 h ([1]; human, 144 h): 10^-3 M
- intracellular tyrosine increased compared to untreated HFb ([2]; 72 h, concentration 10^-5 M): ~32%
- intracellular tyrosine increased compared to untreated HFb ([2]; 72 h, concentration 10^-6 M): about 21%
- slope of dose-response curve of intracellular tyrosine ([2]; 72 h): 5.47
- reduction of HGA in urine and plasma [3]: 95%

Compound: CS(=O)(=O)c1ccc(C(=O)C2C(=O)C(O)CC(O)C2=O)c(Cl)c1COCC(F)(F)F (centres unmarked) [Compound 2, 2-[2-Chloro-4-methylsulfonyl-3-(2,2,2-trifluoroetoxyimethyl)benzoyl]-4,6-dihydroxy-cyclohexane-1,3-dione]
- IC50 [4, 6]: 227 ± 9 nM
- LD50 24 hours ([1]; human, 24 h): 0.48 ± 0.04 mM
- LD50 144 hours ([1]; human, 144 h): 0.48 ± 0.03 mM

Compound: CS(=O)(=O)c1ccc(C(=O)C2C(=O)CCCC2=O)c(Cl)c1COCC(F)(F)F [Compound 3, 2-[2-Chloro-4-methylsulfonyl-3-(2,2,2-trifluoroetoxymethyl)benzoyl]cyclohexane-1,3-dione]
- IC50 [4, 6]: 152 ± 6 nM
- IC50 [4, 7]: 152 nM
- LD50 24 hours ([1]; HFb, MTT, 24 hours treatment): >1 mM [c]
- LD50 144 hours ([1]; HFb, MTT, 144 hours treatment): >1 mM [c]
- LD50 ([1]; HFb, treatment time not given): greater than 10^-3 M
- slope of dose-response curve of intracellular tyrosine ([2]; 72 h): 1.89

Compound: CS(=O)(=O)c1ccc(C(=O)C2C(=O)CCCC2=O)c([N+](=O)[O-])c1 [Compound 4, 2-(4-Methylsulfonyl-2-nitrobenzoyl)-cyclohexane-1,3-dione]
- IC50 [4, 6]: 36.7 ± 9.7 nM
- IC50 [4, 7]: 36.7 nM
- LD50 24 hours ([1]; HFb, MTT, 24 hours treatment): 1.1 ± 0.1 mM
- LD50 144 hours ([1]; HFb, MTT, 144 hours treatment): >1 mM [c]
- tyrosine level lower than in the control ([2]; 72 h, highest inhibitor concentration, p<0.01): about 14%
- intracellular tyrosine levels higher than in the control group ([2]; 72 h, lowest inhibitor concentration analysed, p<0.01): about 17%

Compound: CS(=O)(=O)c1cc(C(F)(F)F)ccc1C(=O)c1cnoc1C1CC1 [Compound 5]
- IC50 [4]: 399 ± 19 nM
- LD50 24 hours ([1]; HFb, MTT, 24 hours treatment): >1 mM [c]
- LD50 144 hours ([1]; HFb, MTT, 144 hours treatment): 0.11 ± 0.07 mM

Compound: CC1(C)CC(=O)C(C(=O)c2ccc([N+](=O)[O-])cc2Cl)C(=O)C1 [Compound 6, 2-(2-chloro-4-nitro-benzoyl)-5,5-dimethyl-cyclohexane-1,3-dione]
- residual activity of the enzyme ([4]; rat liver cytosol 4-HPPD): ~30%
- IC50 [4, 6]: 36.4 ± 9.3 nM
- IC50 ([4]; rat liver cytosol, read-out: IC50): ~36.4 nM
- viability at 144 h, 1 mM [5]: ~75%
- LD50 24 hours ([1]; human, 24 h): >1 mM [c]
- LD50 144 hours ([1]; human, 144 h): >1 mM [c]
- intracellular tyrosine accumulation lower than that found for compound 1 ([2]; highest concentration tested, treatment for three days, p<0.01): about 7%

Compound: COC(=O)C1C(=O)C(C(=O)c2ccc([N+](=O)[O-])cc2)C(=O)CC1(C)C (centres unmarked) [Compound 7, 2,2-Dimethyl-5-(4-nitrobenzoyl)-4,6-dioxycyclohexane methyl carboxylate]
- IC50 [4, 8]: no inhibition
- LD50 24 hours ([1]; human, 24 h): 0.63 ± 0.12 mM
- LD50 144 hours ([1]; human, 144 h): >1 mM [c]

Compound: CC1(C)CC(=O)C(C(=O)c2ccccc2)C(=O)C1Cl (centres unmarked) [Compound 8, 2-Benzoyl-4-chloro-5,5-dimethyl-cyclohexane-1,3-dione]
- IC50 [4, 8]: no inhibition
- LD50 24 hours ([1]; human, 24 h): >1 mM [c]
- LD50 144 hours ([1]; human, 144 h): >1 mM [c]

Compound: CC1(C)CC(=O)C(C(=O)c2ccccc2)C(=O)C1 [Compound 9, 2-Benzoyl-5,5-dimethyl-cyclohexane-1,3-dione]
- IC50 [4, 8]: no inhibition
- LD50 24 hours ([1]; human, 24 h): >1 mM [c]
- LD50 144 hours ([1]; human, 144 h): >1 mM [c]

Compound: Cc1cc(C2C(=O)C(C(=O)c3ccc(Cl)cc3)C(=O)CC2(C)C)on1 (centres unmarked) [Compound 10, 2-(4-chlorobenzoyl)-5,5-dimethyl-4-(3-methyl-isoxazol-5-yl)-cyclohexane-1,3-dione]
- IC50 [4, 6]: 59900 ± 1800 nM
- LD50 24 hours ([1]; human, 24 h): >1 mM [c]
- LD50 144 hours ([1]; human, 144 h): 0.82 ± 0.20 mM

Compound: CC1(C)C(Cl)C(=O)C(C(=O)c2ccccc2)C(=O)C1Cl (centres unmarked) [Compound 11, 2-Benzoyl-4,6-dichloro-5,5-dimethyl-cyclohexane-1,3-dione]
- IC50 [4, 6]: 192 ± 2 nM
- LD50 24 hours ([1]; human, 24 h): >1 mM [c]
- LD50 144 hours ([1]; human, 144 h): 0.29 ± 0.08 mM

Compound: O=C1CCC(c2ccccc2)C(=O)C1C(=O)c1ccc(Cl)cc1Cl (centres unmarked) [Compound 13, 2-(2,4-dichlorobenzoyl) -4-phenyl-cyclohexane-1,3-dione]
- IC50 [4, 6]: 279 ± 6 nM
- LD50 24 hours ([1]; human, 24 h): >1 mM [c]
- LD50 144 hours ([1]; human, 144 h): 0.36 ± 0.15 mM

Compound: CC1(C)CC(=O)C(C(=O)c2ccc(C(F)(F)F)cc2Cl)C(=O)C1 [Compound 14, 2-(2-Chloro-4-trifluoromethylbenzoyl)-5,5-dimethyl-cyclohexane-1,3-dione]
- IC50 [4, 6]: 10500 ± 3700 nM
- cytotoxicity (in words) [1]: not cytotoxic

Compound: CC1(C)CC(=O)C(C(=O)c2ccc(C(F)(F)F)cc2[N+](=O)[O-])C(=O)C1 [Compound 15, 2-(2-Nitro-4-trifluoromethylbenzoyl)-5,5-dimethyl-cyclohexane-1,3-dione]
- IC50 [4]: 61.6 ± 7.4 nM
- cytotoxicity (in words) ([1]; HFb, LD50 24 h): not cytotoxic
- LD50 24 hours ([1]; HFb, MTT, 24 hours treatment): > 0.01 mM

Source: patent EP3419609B1, “TREATMENT OF ALKAPTONURIA AND TYROSINEMIA TYPE 1” (Università degli Studi di Siena, priority 2016, dated 2017)
